Data reported in ChEMBL document CHEMBL1201862, “PubChem BioAssay data set” (2004).
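Tested at 5 concentrations; 48 h exposure; 96-well plates; endpoints linearly interpolated, else capped at highest concentration. Here, GI50 denotes the concentration required for 50% inhibition of growth.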 Activity calls are given as the source filed them. Rule as the data show it: active = GI50 up to about 1.1 µM and inactive = higher.

Experiments:
Assay in all cases: inhibition of tumour cell growth, NCI panel, 48 h
[1] = test system: BT-549
[2] = test system: HT-29
[3] = test system: OVCAR-3
[4] = test system: TK-10
[5] = test system: SK-OV-3
[6] = test system: U-251
[7] = test system: HCT-116
[8] = test system: NCI-H522
[9] = test system: SK-MEL-28
[10] = test system: UO-31
[11] = test system: KM12
[12] = test system: T47D
[13] = test system: MOLT-4
[14] = test system: SF-539
[15] = test system: SN12C
[16] = test system: ACHN
[17] = test system: SF-268
[18] = test system: IGROV-1
[19] = test system: NCI-H226
[20] = test system: SK-MEL-5
[21] = test system: HCC 2998
[22] = test system: RXF 393
[23] = test system: MDA-MB-231
[24] = test system: NCI-H23
[25] = test system: SW-620
[26] = test system: UACC-257
[27] = test system: HCT-15
[28] = test system: OVCAR-4
[29] = test system: Malme-3M
[30] = test system: Hs-578T
[31] = test system: MDA-N
[32] = test system: SNB-19
[33] = test system: OVCAR-8
[34] = test system: NCI-H460
[35] = test system: UACC-62
[36] = test system: SF-295
[37] = test system: A498
[38] = test system: K562
[39] = test system: DU-145
[40] = test system: CAKI-1
[41] = test system: CCRF-CEM
[42] = test system: A549
[43] = test system: MCF7
[44] = test system: 786-0
[45] = test system: SNB-75
[46] = test system: EKVX
[47] = test system: HOP-62
[48] = test system: NCI/ADR-RES
[49] = test system: HOP-92
[50] = test system: M14
[51] = test system: MDA-MB-435
[52] = test system: COLO 205
[53] = test system: PC-3
[54] = test system: SR
[55] = test system: HL-60
[56] = test system: LOX IMVI
[57] = test system: SK-MEL-2
[58] = test system: RPMI-8226
[59] = test system: OVCAR-5

CCn1c(=O)c2c3ccc(O)cc3oc2c2ccc(O)cc21
GI50 [1]: 26.1 µM (inactive)
GI50 [2]: 48.1 µM (inactive)
GI50 [3]: 42.7 µM (inactive)
GI50 [4]: 44 µM (inactive)
GI50 [5]: 38.5 µM (inactive)
GI50 [6]: 32.2 µM (inactive)
GI50 [7]: 27.2 µM (inactive)
GI50 [8]: 40.1 µM (inactive)
GI50 [9]: 49.1 µM (inactive)
GI50 [10]: 26.7 µM (inactive)
GI50 [11]: 49.1 µM (inactive)
GI50 [12]: 18.1 µM (inactive)
GI50 [13]: 25.5 µM (inactive)
GI50 [14]: 34.9 µM (inactive)
GI50 [15]: 41.5 µM (inactive)
GI50 [16]: 24.8 µM (inactive)
GI50 [17]: 36.9 µM (inactive)
GI50 [18]: 40.4 µM (inactive)
GI50 [19]: 42.7 µM (inactive)
GI50 [20]: 22.5 µM (inactive)
GI50 [21]: 47 µM (inactive)
GI50 [22]: 53.7 µM (inactive)
GI50 [23]: 30.2 µM (inactive)
GI50 [24]: 37.4 µM (inactive)
GI50 [25]: 41 µM (inactive)
GI50 [26]: > 100 µM (inactive)
GI50 [27]: 39.4 µM
GI50 [28]: 62.4 µM (inactive)
GI50 [29]: 41.7 µM (inactive)
GI50 [30]: 14.6 µM (inactive)
GI50 [31]: 37.5 µM (inactive)
GI50 [32]: 43.8 µM (inactive)
GI50 [33]: 50.6 µM (inactive)
GI50 [34]: 34.6 µM (inactive)
GI50 [35]: 31.1 µM (inactive)
GI50 [36]: 52.4 µM (inactive)
GI50 [37]: 25.4 µM (inactive)
GI50 [38]: 40.6 µM (inactive)
GI50 [39]: 47.8 µM (inactive)
GI50 [40]: 39.4 µM (inactive)
GI50 [41]: 28.2 µM (inactive)
GI50 [42]: 41.1 µM (inactive)
GI50 [43]: 39.2 µM (inactive)
GI50 [44]: 63.4 µM (inactive)
GI50 [45]: 29.9 µM (inactive)
GI50 [46]: 3.55 µM (inactive)
GI50 [47]: 34.4 µM (inactive)
GI50 [48]: 53.3 µM (inactive)
GI50 [49]: 57.9 µM (inactive)
GI50 [50]: 43.2 µM (inactive)
GI50 [51]: 33.7 µM (inactive)
GI50 [52]: 44.7 µM (inactive)
GI50 [53]: 42.6 µM (inactive)
GI50 [54]: 27.6 µM (inactive)

O=C(NNc1ccnc2cc(Cl)ccc12)/C(=C\c1ccccc1Cl)NC(=O)c1ccccc1
GI50 [1]: 33.8 µM (inactive)
GI50 [2]: 47.8 µM (inactive)
GI50 [3]: 16.5 µM (inactive)
GI50 [4]: 66.1 µM (inactive)
GI50 [5]: > 100 µM (inactive)
GI50 [6]: 17.3 µM (inactive)
GI50 [7]: 42.7 µM (inactive)
GI50 [8]: 18.5 µM (inactive)
GI50 [9]: > 100 µM (inactive)
GI50 [10]: 38.9 µM (inactive)
GI50 [11]: 20.5 µM (inactive)
GI50 [12]: 32.2 µM (inactive)
GI50 [14]: 27.7 µM (inactive)
GI50 [15]: 38.1 µM (inactive)
GI50 [16]: 25.4 µM (inactive)
GI50 [17]: 27.4 µM (inactive)
GI50 [18]: 12.5 µM (inactive)
GI50 [19]: 23.2 µM (inactive)
GI50 [20]: 23.8 µM (inactive)
GI50 [21]: 60 µM (inactive)
GI50 [22]: 27.2 µM (inactive)
GI50 [23]: 74 µM (inactive)
GI50 [24]: 54.7 µM (inactive)
GI50 [25]: 37.9 µM (inactive)
GI50 [26]: 34.1 µM (inactive)
GI50 [27]: 48.4 µM
GI50 [28]: 32.8 µM (inactive)
GI50 [29]: 52.6 µM (inactive)
GI50 [30]: 32.5 µM (inactive)
GI50 [31]: 37.3 µM (inactive)
GI50 [32]: 46.2 µM (inactive)
GI50 [33]: 20 µM (inactive)
GI50 [34]: 42.1 µM (inactive)
GI50 [35]: 21 µM (inactive)
GI50 [36]: 27.5 µM (inactive)
GI50 [38]: 34.6 µM (inactive)
GI50 [55]: 23.4 µM (inactive)
GI50 [39]: 55.7 µM (inactive)
GI50 [40]: 86.3 µM (inactive)
GI50 [41]: 29.8 µM (inactive)
GI50 [56]: 17.4 µM (inactive)
GI50 [57]: 19.4 µM (inactive)
GI50 [42]: 38.2 µM (inactive)
GI50 [43]: 15.5 µM (inactive)
GI50 [44]: 41.6 µM (inactive)
GI50 [45]: 39.3 µM (inactive)
GI50 [58]: 29.2 µM (inactive)
GI50 [46]: 31.8 µM (inactive)
GI50 [47]: 19.2 µM (inactive)
GI50 [59]: 39.7 µM (inactive)
GI50 [48]: 24.9 µM (inactive)
GI50 [49]: 35.6 µM (inactive)
GI50 [50]: 31.3 µM (inactive)
GI50 [51]: 38.6 µM (inactive)
GI50 [52]: 25.2 µM (inactive)
GI50 [53]: 36.1 µM (inactive)
GI50 [54]: 35 µM (inactive)

N#CCCN(CCC#N)c1ccc(C(/N=N/c2ccccc2)=N\c2ccccc2)cc1
GI50 [1]: 13 µM (inactive)
GI50 [2]: > 100 µM (inactive)
GI50 [3]: > 100 µM (inactive)
GI50 [4]: > 100 µM (inactive)
GI50 [5]: > 100 µM (inactive)
GI50 [6]: > 100 µM (inactive)
GI50 [7]: > 100 µM (inactive)
GI50 [8]: 59.6 µM (inactive)
GI50 [9]: > 100 µM (inactive)
GI50 [10]: > 100 µM (inactive)
GI50 [11]: > 100 µM (inactive)
GI50 [12]: > 100 µM (inactive)
GI50 [13]: > 100 µM (inactive)
GI50 [14]: > 100 µM (inactive)
GI50 [15]: > 100 µM (inactive)
GI50 [16]: > 100 µM (inactive)
GI50 [17]: > 100 µM (inactive)
GI50 [18]: > 100 µM (inactive)
GI50 [19]: > 100 µM (inactive)
GI50 [20]: > 100 µM (inactive)
GI50 [21]: > 100 µM (inactive)
GI50 [22]: > 100 µM (inactive)
GI50 [23]: > 100 µM (inactive)
GI50 [24]: > 100 µM (inactive)
GI50 [25]: > 100 µM (inactive)
GI50 [26]: > 100 µM (inactive)
GI50 [27]: > 100 µM
GI50 [28]: > 100 µM (inactive)
GI50 [30]: > 100 µM (inactive)
GI50 [31]: > 100 µM (inactive)
GI50 [32]: > 100 µM (inactive)
GI50 [33]: > 100 µM (inactive)
GI50 [34]: > 100 µM (inactive)
GI50 [35]: > 100 µM (inactive)
GI50 [36]: > 100 µM (inactive)
GI50 [37]: > 100 µM (inactive)
GI50 [38]: > 100 µM (inactive)
GI50 [39]: > 100 µM (inactive)
GI50 [40]: > 100 µM (inactive)
GI50 [41]: > 100 µM (inactive)
GI50 [57]: > 100 µM (inactive)
GI50 [42]: > 100 µM (inactive)
GI50 [43]: > 100 µM (inactive)
GI50 [44]: > 100 µM (inactive)
GI50 [45]: > 100 µM (inactive)
GI50 [58]: > 100 µM (inactive)
GI50 [46]: > 100 µM (inactive)
GI50 [47]: > 100 µM (inactive)
GI50 [59]: > 100 µM (inactive)
GI50 [48]: > 100 µM (inactive)
GI50 [49]: > 100 µM (inactive)
GI50 [50]: > 100 µM (inactive)
GI50 [51]: > 100 µM (inactive)
GI50 [52]: > 100 µM (inactive)
GI50 [53]: > 100 µM (inactive)
GI50 [54]: > 100 µM (inactive)
